From patent US20240024273A1, “TOPICAL ADMINISTRATION OF 2-(DIETHYLAMINO)ETHYL 2-(4-ISOBUTYLPHENYL)PROPRIONATE FOR TREATMENT OF DISEASES” (TECHFIELDS PHARMA CO., LTD., priority 2020, published 2024)

System: Subjects with Osteoarthritis of the Knee
Assay: Second Phase 2 study: safety (treatment-emergent adverse events)
Type: in vivo, human
Parameters: Serious Treatment-emergent Adverse Event: SAE Criteria: scale not given here
Description: Safety assessments will be performed at each visit and will include assessment of AEs, vital signs (blood pressure, pulse rate, and oral temperature), clinical laboratories, physical examination, skin irritation, and electrocardiograms (ECGs) as indicated in the study flow chart, Table 47.
Safety assessments will include AEs, vital signs (blood pressures, pulse rate, and oral temperature), clinical laboratories, physical examination, skin irritation, and ECGs at various time points during the study as indicated in the study flow chart.
Adverse events of interest include: local skin reactions around the treated knee(s), upper stomach pain, GI bleeding, serious cardiovascular side effects (e.g., thrombotic events, myocardial infarction, or stroke), jaundice, elevated liver function tests, and nausea.
Safety analyses will be conducted on the SAS. Safety parameters will be listed and summarized using standard descriptive statistics, as appropriate. No formal statistical analyses are planned.

[1] = 4.375 mg, BID, subject 105/07/F64, abdominal aortic aneurysm
[2] = 8.75 mg, BID, subject 279/08/M66, Transient Ischemic Attack

CCN(CC)CCOC(=O)C(C)c1ccc(CC(C)C)cc1 (stereo not drawn) [2-(diethylamino)ethyl 2-(4-isobutylphenyl)propionate]
2.8%: Gamma-Glutamyltransferase Increased: percentage of subjects with adverse events (4.375 mg/knee, BID, N = 71) | Skin and Subcutaneous Tissue Disorders: percentage of subjects with adverse events (4.375 mg/knee, BID, N = 71) | Toothache: percentage of subjects with adverse events (4.375 mg/knee, BID, N = 71) | White Blood Cell Count Decreased: percentage of subjects with adverse events (4.375 mg/knee, BID, N = 71)
Recovered/: Serious Treatment-emergent Adverse Event: Outcome (8.75 mg, BID, subject 279/08/M66, Transient Ischemic Attack, cell wraps: Recovered/ resolved)
5: Hypertriglyceridemia: subjects with adverse events (4.375 mg/knee, BID, N = 71) | Subjects with Positive Fecal Occult Blood Test (4.375 mg/knee, BID, N = 71)
8: Urinary Tract Infection: number of adverse events (4.375 mg/knee, BID, N = 71)
2(2.8%): Contusion: subjects with adverse events, number (percentage) (4.375 mg/knee, BID, N = 71) | Throat Irritation: subjects with adverse events, number (percentage) (4.375 mg/knee, BID, N = 71)
23(32.4%): Infections and Infestations: subjects with adverse events, number (percentage) (4.375 mg/knee, BID, N = 71)
Death: Serious Treatment-emergent Adverse Event: Outcome (4.375 mg, BID, subject 105/07/F64, abdominal aortic aneurysm, cell wraps: Results / in / Death)
1.4%: Abdominal Pain Upper: percentage of subjects with adverse events (4.375 mg/knee, BID, N = 71) | Administration Site Conditions: percentage of subjects with adverse events (4.375 mg/knee, BID, N = 71) | Alanine Aminotransferase Increased: percentage of subjects with adverse events (4.375 mg/knee, BID, N = 71) | Application Site Irritation: percentage of subjects with adverse events (4.375 mg/knee, BID, N = 71) | Blood Alkaline Phosphatase Increased: percentage of subjects with adverse events (4.375 mg/knee, BID, N = 71) | Blood Bilirubin Increased: percentage of subjects with adverse events (4.375 mg/knee, BID, N = 71) | Ear and Labyrinth Disorders: percentage of subjects with adverse events (4.375 mg/knee, BID, N = 71) | Hypercholesterolaemia: percentage of subjects with adverse events (4.375 mg/knee, BID, N = 71) | Hypertension: percentage of subjects with adverse events (4.375 mg/knee, BID, N = 71) | Rash: percentage of subjects with adverse events (4.375 mg/knee, BID, N = 71) | Skin Irritation: percentage of subjects with adverse events (4.375 mg/knee, BID, N = 71) | Transaminases Increased: percentage of subjects with adverse events (4.375 mg/knee, BID, N = 71) | Vascular Disorders: percentage of subjects with adverse events (4.375 mg/knee, BID, N = 71)
24: Infections and Infestations: number of adverse events (4.375 mg/knee, BID, N = 71)
33.8%: incidence rate of AEs possibly, probably, or definitely related to study drug (4.375 mg/knee BID)
12: Upper Respiratory Tract Infection: number of adverse events (4.375 mg/knee, BID, N = 71)
1(%)[1]: Back Pain: number of adverse events (4.375 mg/knee, BID, N = 71) | Back Pain: subjects with adverse events, number (percentage) (4.375 mg/knee, BID, N = 71) | Ear Pain: number of adverse events (4.375 mg/knee, BID, N = 71) | Ear Pain: subjects with adverse events (4.375 mg/knee, BID, N = 71) | Musculoskeletal Pain: number of adverse events (4.375 mg/knee, BID, N = 71) | Musculoskeletal Pain: subjects with adverse events, number (percentage) (4.375 mg/knee, BID, N = 71) | Neck Pain: number of adverse events (4.375 mg/knee, BID, N = 71) | Neck Pain: subjects with adverse events, number (percentage) (4.375 mg/knee, BID, N = 71)
14.3%: GI disorders incidence rate (8.75 mg/knee (BID))
1: Serious Treatment-emergent Adverse Event: SAE Criteria [1] | Abdominal Pain Upper: number of adverse events (4.375 mg/knee, BID, N = 71) | Abdominal Pain Upper: subjects with adverse events (4.375 mg/knee, BID, N = 71) | Administration Site Conditions: number of adverse events (4.375 mg/knee, BID, N = 71) | Administration Site Conditions: subjects with adverse events (4.375 mg/knee, BID, N = 71) | Alanine Aminotransferase Increased: number of adverse events (4.375 mg/knee, BID, N = 71) | Alanine Aminotransferase Increased: subjects with adverse events (4.375 mg/knee, BID, N = 71) | Application Site Irritation: number of adverse events (4.375 mg/knee, BID, N = 71) | Application Site Irritation: subjects with adverse events (4.375 mg/knee, BID, N = 71) | Blood Alkaline Phosphatase Increased: number of adverse events (4.375 mg/knee, BID, N = 71) | Blood Alkaline Phosphatase Increased: subjects with adverse events (4.375 mg/knee, BID, N = 71) | Blood Bilirubin Increased: number of adverse events (4.375 mg/knee, BID, N = 71) | Blood Bilirubin Increased: subjects with adverse events (4.375 mg/knee, BID, N = 71) | Cough: number of adverse events (4.375 mg/knee, BID, N = 71) | Ear and Labyrinth Disorders: number of adverse events (4.375 mg/knee, BID, N = 71) | Ear and Labyrinth Disorders: subjects with adverse events (4.375 mg/knee, BID, N = 71) | Fall: number of adverse events (4.375 mg/knee, BID, N = 71) | Headache: number of adverse events (4.375 mg/knee, BID, N = 71) | Hypercholesterolaemia: number of adverse events (4.375 mg/knee, BID, N = 71) | Hypercholesterolaemia: subjects with adverse events (4.375 mg/knee, BID, N = 71) | Hypertension: number of adverse events (4.375 mg/knee, BID, N = 71) | Hypertension: subjects with adverse events (4.375 mg/knee, BID, N = 71) | Nervous System Disorders: number of adverse events (4.375 mg/knee, BID, N = 71) | Rash: number of adverse events (4.375 mg/knee, BID, N = 71) | Rash: subjects with adverse events (4.375 mg/knee, BID, N = 71) | Rhinorrhoea: number of adverse events (4.375 mg/knee, BID, N = 71) | Skin Irritation: number of adverse events (4.375 mg/knee, BID, N = 71) | Skin Irritation: subjects with adverse events (4.375 mg/knee, BID, N = 71) | Transaminases Increased: number of adverse events (4.375 mg/knee, BID, N = 71) | Transaminases Increased: subjects with adverse events (4.375 mg/knee, BID, N = 71) | Vascular Disorders: number of adverse events (4.375 mg/knee, BID, N = 71) | Vascular Disorders: subjects with adverse events (4.375 mg/knee, BID, N = 71)
2: Contusion: number of adverse events (4.375 mg/knee, BID, N = 71) | Gamma-Glutamyltransferase Increased: number of adverse events (4.375 mg/knee, BID, N = 71) | Gamma-Glutamyltransferase Increased: subjects with adverse events (4.375 mg/knee, BID, N = 71) | Oropharyngeal Pain: number of adverse events (4.375 mg/knee, BID, N = 71) | Skin and Subcutaneous Tissue Disorders: number of adverse events (4.375 mg/knee, BID, N = 71) | Skin and Subcutaneous Tissue Disorders: subjects with adverse events (4.375 mg/knee, BID, N = 71) | Throat Irritation: number of adverse events (4.375 mg/knee, BID, N = 71) | Toothache: number of adverse events (4.375 mg/knee, BID, N = 71) | Toothache: subjects with adverse events (4.375 mg/knee, BID, N = 71) | White Blood Cell Count Decreased: number of adverse events (4.375 mg/knee, BID, N = 71) | White Blood Cell Count Decreased: subjects with adverse events (4.375 mg/knee, BID, N = 71)
7.0%: positive fecal occult blood test incidence rate (4.375 mg/knee BID) | Hypertriglyceridemia: percentage of subjects with adverse events (4.375 mg/knee, BID, N = 71) | Subjects with Positive Fecal Occult Blood Test, percentage (4.375 mg/knee, BID, N = 71)
6(8.5%): Respiratory, Thoracic and Mediastinal Disorders: subjects with adverse events, number (percentage) (4.375 mg/knee, BID, N = 71)
3: Aspartate Aminotransferase Increased: number of adverse events (4.375 mg/knee, BID, N = 71) | Aspartate Aminotransferase Increased: subjects with adverse events (4.375 mg/knee, BID, N = 71) | Gastrointestinal Disorders: number of adverse events (4.375 mg/knee, BID, N = 71) | Gastrointestinal Disorders: subjects with adverse events (4.375 mg/knee, BID, N = 71) | Influenza: number of adverse events (4.375 mg/knee, BID, N = 71) | Injury, Poisoning and Procedural Complications: number of adverse events (4.375 mg/knee, BID, N = 71) | Musculoskeletal and Connective Tissue Disorders, Overall Total: number of adverse events (4.375 mg/knee, BID, N = 71)
7.1%: positive fecal occult blood test incidence rate (8.75 mg/knee (BID))
Unrelated: Serious Treatment-emergent Adverse Event: Relationship to Study Drug [1]
7: Metabolism and Nutrition Disorders: number of adverse events (4.375 mg/knee, BID, N = 71)
28.6%: infections and infestations incidence rate (8.75 mg/knee (BID))
4: Abdominal Discomfort: number of adverse events (8.75 mg/knee, BID, N = 70)
15.5%: Investigations: percentage of subjects with adverse events (4.375 mg/knee, BID, N = 71)
4.2%: GI disorders incidence rate (4.375 mg/knee BID) | Aspartate Aminotransferase Increased: percentage of subjects with adverse events (4.375 mg/knee, BID, N = 71) | Gastrointestinal Disorders: percentage of subjects with adverse events (4.375 mg/knee, BID, N = 71)
8.5%: Metabolism and Nutrition Disorders: percentage of subjects with adverse events (4.375 mg/knee, BID, N = 71)
8(11.3%): Urinary Tract Infection: subjects with adverse events, number (percentage) (4.375 mg/knee, BID, N = 71)
abdominal aortic aneurysm: Serious Treatment-emergent Adverse Event (4.375 mg, BID, subject 105/07/F64, [aortic aneurysm] (Blood and Lymphatic System Disorders))
6: Frequency of Positive Fecal Occult Blood Test (4.375 mg/knee, BID, N = 71) | Hypertriglyceridemia: number of adverse events (4.375 mg/knee, BID, N = 71) | Metabolism and Nutrition Disorders: subjects with adverse events (4.375 mg/knee, BID, N = 71) | Respiratory, Thoracic and Mediastinal Disorders: number of adverse events (4.375 mg/knee, BID, N = 71) | Serious Treatment-emergent Adverse Event: SAE Criteria [2]
11: Investigations: number of adverse events (4.375 mg/knee, BID, N = 71) | Investigations: subjects with adverse events (4.375 mg/knee, BID, N = 71)
< 11 days: Serious Treatment-emergent Adverse Event: Duration [2]
Possible: Serious Treatment-emergent Adverse Event: Relationship to Study Drug (8.75 mg, BID, subject 279/08/M66, Transient Ischemic Attack, cell wraps: Possible / unrelated)
Transient Ischemic Attack: Serious Treatment-emergent Adverse Event (8.75 mg, BID, subject 279/08/M66, [Thrombosis] (Vascular Disorders))
1(1.4%): Cough: subjects with adverse events, number (percentage) (4.375 mg/knee, BID, N = 71) | Fall: subjects with adverse events, number (percentage) (4.375 mg/knee, BID, N = 71) | Headache: subjects with adverse events, number (percentage) (4.375 mg/knee, BID, N = 71) | Nervous System Disorders: subjects with adverse events, number (percentage) (4.375 mg/knee, BID, N = 71) | Rhinorrhoea: subjects with adverse events, number (percentage) (4.375 mg/knee, BID, N = 71)
Severe: Serious Treatment-emergent Adverse Event: Severity [1] | Serious Treatment-emergent Adverse Event: Severity [2]
32.4%: infections and infestations incidence rate (4.375 mg/knee BID)
41.4%: incidence rate of AEs possibly, probably, or definitely related to study drug (8.75 mg/knee (BID))
2(1.4%): Oropharyngeal Pain: subjects with adverse events, number (percentage) (4.375 mg/knee, BID, N = 71)
